Values of other authors in patent US6299888A, “Azelastine hydrochloride-containing percutaneous preparation having good percutaneous absorbability and reduced skin irritation” (Teikoku Seiyaku Kabushiki Kaisha, priority 1997, dated 2001).
Where a name gives a salt, the structure may show the parent alone.

CN1CCCC(n2nc(Cc3ccc(Cl)cc3)c3ccccc3c2=O)CC1 (stereo not shown) [azelastine hydrochloride]
dissociation constant (pKa): about 9.5
